The values below come from patent US20220402867A1, “SULFO-SUBSTITUTED BIARYL COMPOUND OR SALT THEREOF, PREPARATION METHOD THEREFOR, AND USE THEREOF” (Shanghai Litedd Co., Ltd., priority 2019, published 2022).

SMILES strings stand for the structures. pEC50: −log10 of the molar value. Read-outs that look alike come from different tables or passages of the source. A value given as a limit tells only on which side of the number the result lay.

For data set [1], the target named is T1, RORγt (RORγ-LBD chimeric receptor) (Homo sapiens, UniProt P51449).
T1 construct: host or cells: HEK293T
T1 sequence (P51449 269-508 limits assumed): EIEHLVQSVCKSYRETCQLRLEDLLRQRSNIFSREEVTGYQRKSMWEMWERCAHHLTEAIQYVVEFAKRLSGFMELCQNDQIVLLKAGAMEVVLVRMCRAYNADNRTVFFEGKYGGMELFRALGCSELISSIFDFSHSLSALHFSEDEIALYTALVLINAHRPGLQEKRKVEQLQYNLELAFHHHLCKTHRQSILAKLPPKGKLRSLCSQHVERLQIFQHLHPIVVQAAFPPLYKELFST
The data set is described as follows: Luciferase reporter gene assay of RORγt agonistic activity in HEK293T cells. It is filed as cell-based. The arrangement: Emax: dose or concentration left out as unconfirmed. The settings on record: for pEC50: HEK293T, GAL4 luciferase reporter, read-out: EC50; for Emax: HEK-293T. A digest of the protocol: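 HEK293T cells co-transfected with GAL4-RORγ-LBD (pBIND) and GAL4-driven luciferase reporter (pGL4.35), then treated with compounds (10-point 3-fold series; 10 mM top DMSO stock). Luminescence (Steady-Glo) normalised to positive and vehicle controls as % activity; EC50 by log-concentration fit.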

Data set [2] can be described thus: Metabolic stability in mouse liver microsomes. The class given is in vitro ADME, CD-1 mice. The settings on record: for half-life: CD-1; for microsomal CLint: CD-1, 0.5 mg protein/mL. The method in brief:
(§1)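 Compound incubated at 37 °C with 0.5 mg protein/mL liver microsomes plus cofactors in PBS, sampled at 0–60 min, quenched with cold acetonitrile and quantified by HPLC-MS/MS (n=3). Half-life and Clint (μL/min/mg) come from the slope of ln(% remaining) versus time.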

A short description of data set [3]: Metabolic stability in human liver microsomes. It is filed as in vitro ADME. The settings on record: for microsomal CLint: 0.5 mg protein/mL. The method in brief:
as §1

A short description of data set [4]: Pharmacokinetic (PK) assay in mice. It is filed as in vivo. The settings on record: CD-1 mice; for AUC(0-t) / Cmax / half-life / Vd / bioavailability: mouse, plasma; for Vd: read-out: Vss; for bioavailability: Po 5 mg/kg vs IV 1 mg/kg. A digest of the protocol:
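CD-1 mice (3 per group) were dosed IV at 1 mg/kg in 5% DMSO/40% PEG400/55% (20% 3-CD) or by oral gavage at 5 mg/kg in DMSO/1% methylcellulose (1:99). Saphenous blood was sampled from 0 to 24 h into EDTA-K2 tubes for plasma. Plasma levels were measured by UPLC-MS/MS, and PK parameters were calculated from them.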

Take `COCC(C(=O)Nc1ccc(-c2ccc(S(=O)(=O)C3CC3)cc2)c(C(F)(F)F)c1)c1ccc(S(C)(=O)=O)cc1` (single isomer, unassigned) [Example 43, (S)—N-(4′-(cyclopropylsulfonyl)-2-(trifluoromethyl)-[1,1′-biphenyl]-4-yl)-3-methoxy-2-(4-(methylsulfonyl)phenyl)propionamide or (R)—N-(4′-(cyclopropylsulfonyl)-2-(trifluoromethyl)-[1,1′-biphenyl]-4-yl)-3-methoxy-2-(4-(methylsulfonyl)phenyl)propanamide]: in data set [1], the pEC50 was 7.24 and the Emax was determined as 64.1%. Further, in data set [2], the “% Remaining (T = 60 min)” value came out at 64.4%, the half-life is 1.56 h and the intrinsic metabolic clearance (microsomal CLint) is 14.8 µL/min/mg. In data set [3], the half-life stood at 1.68 h, the microsomal CLint worked out at 13.8 µL/min/mg and the “% Remaining (T = 60 min)” value is given as 69%. The CL_obs in data set [4] (IV 1 mg/kg, values marked **) is 4.31** mL/min/kg. Besides, in data set [4] (IV 1 mg/kg), the AUC(0-t) stood at 3810 ng·h/mL, the Cmax worked out at 787 ng/mL and the half-life was 4.14 h. Also, the Vd in data set [4] (IV 1 mg/kg, values marked *) was 1.38 L/kg. The bioavailability in data set [4] came to 89.1%. For the same compound, in data set [4] (Po 5 mg/kg), the AUC(0-t) came to 17100 ng·h/mL, the Cmax was 3040 ng/mL and the half-life was 3.51 h.

Turning to `CCS(=O)(=O)c1ccc(CC(=O)Nc2cc(Cl)c(-c3ccc(S(C)(=O)=O)cc3)c(Cl)c2)cc1` [Example 2, N-(2,6-dichloro-4′-(methylsulfonyl)-[1,1′-biphenyl]-4-yl)-2-(4-(ethylsulfonyl)phenyl)acetamide], in data set [1], the pEC50 is 7.72 and the Emax amounted to 43%. Further, in data set [2], the “% Remaining (T = 60 min)” value is recorded as 89.30%, the half-life is > 2.42 h and the microsomal CLint is < 9.6 µL/min/mg. For the same compound, in data set [3], the half-life was > 2.42 h, the microsomal CLint is < 9.6 µL/min/mg and the “% Remaining (T = 60 min)” value came to 75.7%. Besides, in data set [4] (IV 1 mg/kg), the CL_obs stood at 426.2 mL/h/kg, the AUC(0-t) amounted to 2250 ng·h/mL, the peak level (Cmax) was 737 ng/mL and the half-life was 1.76 h. The Vd in data set [4] (IV 1 mg/kg) is 1.09 L/kg. In addition, the bioavailability in data set [4] is 112%. In data set [4] (Po 5 mg/kg), the AUC(0-t) worked out at 12600 ng·h/mL, the highest level (Cmax) was 3030 ng/mL and the half-life is 2.46 h.

For the compound `CCS(=O)(=O)c1ccc(-c2c(Cl)cc(NC(=O)Cc3ccc(S(C)(=O)=O)cc3)cc2Cl)cc1` [Example 4, N-(2,6-Dichloro-4′-(ethylsulfonyl)-[1,1′-biphenyl]-4-yl)-2-(4-(methylsulfonyl)phenyl)acetamide], in data set [1], the pEC50 is 7.77 and the Emax is 64%. In data set [2], the “% Remaining (T = 60 min)” value was 22.20% and the half-life is 0.47 h. Further, in data set [3], the half-life is > 2.42 h, the microsomal CLint was < 9.6 µL/min/mg and the “% Remaining (T = 60 min)” value is recorded as 83.4%.

For the compound `CCS(=O)(=O)c1ccc(-c2c(Cl)cc(NC(=O)Cc3ccc(S(=O)(=O)CC)cn3)cc2Cl)cc1` [Example 5, N-(2,6-Dichloro-4′-(ethylsulfonyl)-[1,1′-biphenyl]-4-yl)-2-(5-(ethylsulfonyl)pyridin-2-yl)acetamide], in data set [1], the pEC50 is 7.43 and the Emax is 69.6%. Also, in data set [2], the “% Remaining (T = 60 min)” value is 35.50% and the half-life is 0.707 h. Moreover, in data set [3], the half-life is > 2.42 h, the microsomal CLint is < 9.6 µL/min/mg and the “% Remaining (T = 60 min)” value came to 76.7%. In data set [4] (IV 1 mg/kg), this compound had a CL_obs of 1367 mL/h/kg, an AUC(0-t) of 730 ng·h/mL, a Cmax of 1360 ng/mL and a half-life of 0.45 h. The Vd in data set [4] (IV 1 mg/kg) is 0.893 L/kg. The bioavailability in data set [4] worked out at 38.8%. Moreover, in data set [4] (Po 5 mg/kg), the AUC(0-t) worked out at 1420 ng·h/mL, the Cmax amounted to 1770 ng/mL and the half-life is 0.5 h.

As to `CCS(=O)(=O)c1ccc(CC(=O)Nc2cc(Cl)c(-c3ccc(S(C)(=O)=O)cc3)c(Cl)c2)nc1` [Example 8, N-(2,6-Dichloro-4′-(methylsulfonyl)-[1,1′-biphenyl]-4-yl)-2-(5-(ethylsulfonyl)pyridin-2-yl)acetamide], in data set [1], the pEC50 was 7.36 and the Emax was found to be 37.9%. For the same compound, in data set [2], the “% Remaining (T = 60 min)” value is on record as 107.80%, the half-life was > 2.42 h and the microsomal CLint was < 9.6 µL/min/mg. Also, in data set [3], the half-life was > 2.42 h, the microsomal CLint is < 9.6 µL/min/mg and the “% Remaining (T = 60 min)” value was found to be 95.6%.

In the case of `CCS(=O)(=O)c1ccc(-c2c(Cl)cc(NC(=O)Cc3ccc(S(C)(=O)=O)cn3)cc2Cl)cc1` [Example 9, N-(2,6-Dichloro-4′-(ethylsulfonyl)-[1,1′-biphenyl]-4-yl)-2-(5-(methylsulfonyl)pyridin-2-yl)acetamide], in data set [1], the pEC50 was 7.28 and the Emax was 51.5%. In data set [2], the “% Remaining (T = 60 min)” value worked out at 64.20% and the half-life was determined as 1.64 h. For the same compound, in data set [3], the half-life was > 2.42 h, the microsomal CLint is < 9.6 µL/min/mg and the “% Remaining (T = 60 min)” value came out at 102.5%.

With `CS(=O)(=O)c1ccc(CC(=O)Nc2cc(Cl)c(-c3ccc(S(=O)(=O)C4CC4)cc3)c(Cl)c2)cc1` [Example 11, N-(2,6-Dichloro-4′-(cyclopropylsulfonyl)-[1,1′-biphenyl]-4-yl)-2-(4-(methylsulfonyl)phenyl)acetamide], in data set [1], the pEC50 was 7.82 and the Emax was 45%. Further, in data set [2], the “% Remaining (T = 60 min)” value is recorded as 97.10%, the half-life was > 2.42 h and the microsomal CLint is < 9.6 µL/min/mg. Further, in data set [3], the half-life was > 2.42 h, the microsomal CLint was < 9.6 µL/min/mg and the “% Remaining (T = 60 min)” value came to 110.5%. In data set [4] (IV 1 mg/kg), this compound showed a CL_obs of 128.6 mL/h/kg, an AUC(0-t) of 7250 ng·h/mL, a Cmax of 709 ng/mL and a half-life of 6.33 h. In data set [4] (IV 1 mg/kg), the Vd worked out at 1.04 L/kg. In data set [4], the bioavailability was 86.1%. In data set [4] (Po 5 mg/kg), this compound showed an AUC(0-t) of 31200 ng·h/mL, a Cmax of 3810 ng/mL and a half-life of 4.52 h.

Regarding `CCS(=O)(=O)c1ccc(-c2c(Cl)cc(NC(=O)C(COC)c3ccc(S(=O)(=O)CC)cc3)cc2Cl)cc1` (stereo not shown) [Example 13, N-(2,6-Dichloro-4′-(ethylsulfonyl)-[1,1′-biphenyl]-4-yl)-2-(4-(ethylsulfonyl)phenyl)-3-methoxypropionamide], in data set [1], the pEC50 is 7.16 and the Emax was 71.9%. Further, in data set [2], the “% Remaining (T = 60 min)” value is listed as 28% and the half-life is 0.543 h. In addition, in data set [3], the half-life was 2.07 h and the “% Remaining (T = 60 min)” value was found to be 71.4%. In data set [4] (IV 1 mg/kg), this compound showed a CL_obs of 1264.7 mL/h/kg, an AUC(0-t) of 786 ng·h/mL, a Cmax of 1320 ng/mL and a half-life of 0.63 h. For the same compound, the Vd in data set [4] (IV 1 mg/kg) was 0.713 L/kg. Besides, the bioavailability in data set [4] is 24.2%. Besides, in data set [4] (Po 5 mg/kg), the AUC(0-t) is 952 ng·h/mL, the concentration peaked (Cmax) at 1220 ng/mL and the half-life was 0.54 h.

In the case of `CCS(=O)(=O)c1ccc(C(COC)C(=O)Nc2cc(Cl)c(-c3ccc(S(=O)(=O)C4CC4)cc3)c(Cl)c2)cc1` (stereo not shown) [Example 16, N-(2,6-Dichloro-4′-(cyclopropylsulfonyl)-[1,1′-biphenyl]-4-yl)-2-(4-(ethylsulfonyl)phenyl)-3-methoxypropionamide], in data set [1], the pEC50 is 6.74 and the Emax was found to be 85.6%. For the same compound, in data set [2], the “% Remaining (T = 60 min)” value turned out to be 68.90%, the half-life is 2.24 h and the microsomal CLint came to 10.7 µL/min/mg. In data set [3], the half-life was > 2.42 h, the microsomal CLint was < 9.6 µL/min/mg and the “% Remaining (T = 60 min)” value stood at 100.7%. Moreover, in data set [4] (IV 1 mg/kg, values marked **), the CL_obs was 4.51** mL/min/kg. In data set [4] (IV 1 mg/kg), the AUC(0-t) was 3660 ng·h/mL, the concentration peaked (Cmax) at 1170 ng/mL and the half-life is 3.88 h. Further, in data set [4] (IV 1 mg/kg, values marked *), the Vd was found to be 1.1 L/kg. Besides, the bioavailability in data set [4] came to 56.3%. Moreover, in data set [4] (Po 5 mg/kg), the AUC(0-t) worked out at 10300 ng·h/mL, the highest level (Cmax) was 1420 ng/mL and the half-life is 3.3 h.
